From patent US10975037B2 (priority 2018, dated 2021)
Where two headings read alike, the source gives them in different places.

How the values were obtained:
[1] = target: human RORγt ligand binding domain (RORγt LBD) (Homo sapiens (Human), UniProt P51449); assay: RORγt ThermoFluor® assay (thermal shift binding)
In short: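 Thermal shift with 0.065 mg/mL RORγt LBD and 60 μM 1,8-ANS in 100 mM Hepes pH 7.0, 10 mM NaCl, 2.5 mM GSH, 0.002% Tween-20.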

[2] = target: full-length human RORγt (Homo sapiens (Human), UniProt P51449); assay: RORγt (full-length human) reporter assay, conditions A or B, HEK293T cells; format: cell-based; conditions: for IC50: RORγt (FL) Reporter Assay A or B, IC50, HEK293T cells; for inhibition at 3 µM: 3 μM compound concentration (footnote *); for inhibition at 2 µM: 2 μM compound concentration; for inhibition at 6 µM: read-out: RORγt (FL) Reporter Assay A or B, % inhibition @ 6 μM
In short: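 Dual-luciferase read-out was taken after an overnight (16–20 h) compound exposure. Firefly data were scaled between DMSO-only and saturating reference compound, Renilla-normalized, then plotted against concentration for IC50.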

[3] = HEK-293T, 0.67 μM compound concentration (footnote ****), read-out: RORγt (FL) Reporter Assay A or B, % inhibition
[4] = read-out: ThermoFluor® Assay, Kd
[5] = HEK-293T, read-out: RORγt (FL) Reporter Assay A or B, % inhibition

human RORγt ligand binding domain (RORγt LBD), sequence (P51449 other isoform, or with tags, fused parts or gaps): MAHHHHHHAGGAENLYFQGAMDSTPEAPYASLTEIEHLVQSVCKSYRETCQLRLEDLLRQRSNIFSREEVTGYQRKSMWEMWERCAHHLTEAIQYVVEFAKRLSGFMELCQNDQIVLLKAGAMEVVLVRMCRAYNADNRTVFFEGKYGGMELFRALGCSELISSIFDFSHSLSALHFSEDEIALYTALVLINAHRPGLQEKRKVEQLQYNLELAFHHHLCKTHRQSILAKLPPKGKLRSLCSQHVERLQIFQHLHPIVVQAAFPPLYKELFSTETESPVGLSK
full-length human RORγt, sequence (P51449 other isoform, or with tags, fused parts or gaps): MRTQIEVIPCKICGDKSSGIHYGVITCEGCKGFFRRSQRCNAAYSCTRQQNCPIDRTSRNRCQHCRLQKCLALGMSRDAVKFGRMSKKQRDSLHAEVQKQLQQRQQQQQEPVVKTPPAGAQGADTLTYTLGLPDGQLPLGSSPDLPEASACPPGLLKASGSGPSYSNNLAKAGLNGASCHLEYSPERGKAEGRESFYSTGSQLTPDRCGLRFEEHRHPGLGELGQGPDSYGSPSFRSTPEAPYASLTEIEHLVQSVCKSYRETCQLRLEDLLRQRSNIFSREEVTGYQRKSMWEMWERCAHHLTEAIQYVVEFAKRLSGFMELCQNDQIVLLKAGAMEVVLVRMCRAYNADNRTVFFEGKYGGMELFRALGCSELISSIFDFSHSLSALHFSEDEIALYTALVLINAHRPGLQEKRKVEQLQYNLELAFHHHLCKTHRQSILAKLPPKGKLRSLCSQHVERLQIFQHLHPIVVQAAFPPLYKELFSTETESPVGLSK

Question: What does the source list for CCn1nc(C(=O)NC[C@@H]2CC[C@@H](S(C)(=O)=O)CO2)c(Cl)c1-c1ccc(CC(C)(C)C(F)(F)F)cc1OC(F)F (single isomer, unassigned) [Example 16, 4-Chloro-5-(2-(difluoromethoxy)-4-(3,3,3-trifluoro-2,2-dimethylpropyl)phenyl)-1-ethyl-N-(((2S*,5R*)-5-(methylsulfonyl)tetrahydro-2H-pyran-2-yl)methyl)-1H-pyrazole-3-carboxamide]?
Answer: Kd ([1]; ThermoFluor® Assay, Kd): 0.19 nM; inhibition at 0.67 µM [2, 3]: 105%; IC50 [2]: 4.8 nM

Question: With CCn1nc(C(=O)NC[C@]2(O)CC[C@@H](S(C)(=O)=O)CC2)c(Cl)c1-c1ccc(C(O)CCC(F)(F)F)cc1OC(F)F (stereo partly drawn) [Example 98, 4-Chloro-5-(2-(difluoromethoxy)-4-(4,4,4-trifluoro-1-hydroxybutyl)phenyl)-1-ethyl-N-(((1s,4s)-1-hydroxy-4-(methylsulfonyl)cyclohexyl)methyl)-1H-pyrazole-3-carboxamide] as the compound, how does the Kd [1, 4] read?
Answer: 310 nM

Question: What about the inhibition at 3 µM [2, 5] of the same compound?
Answer: 89%

Question: And the IC50 [2]?
Answer: 71 nM

Question: CCn1nc(C(=O)NC[C@H]2CC[C@H](S(C)(=O)=O)CC2)c(C)c1-c1ccc(CCCC(F)(F)F)cc1OC(F)F [Example 78, 5-(2-(Difluoromethoxy)-4-(4,4,4-trifluorobutyl)phenyl)-1-ethyl-4-methyl-N-(((1r,4r)-4-(methylsulfonyl)cyclohexyl)methyl)-1H-pyrazole-3-carboxamide] was tested. Which Kd [1, 4] did it give?
Answer: 0.59 nM

Question: What about the inhibition at […] ([2]; HEK-293T, 0.22 μM compound concentration (footnote *******), read-out: RORγt (FL) Reporter Assay A or B, % inhibition) of the same compound?
Answer: 93%

Question: And the IC50 [2]?
Answer: 12 nM

Question: How did the Kd [1, 4] turn out when CCn1nc(C(=O)NC[C@H]2CC[C@H](S(C)(=O)=O)CC2)c(Cl)c1-c1ccc(CC(C(F)(F)F)C(F)(F)F)cc1OC [Example 84, 4-Chloro-1-ethyl-5-(2-methoxy-4-(3,3,3-trifluoro-2-(trifluoromethyl)propyl)phenyl)-N-(((1r,4r)-4-(methylsulfonyl)cyclohexyl)methyl)-1H-pyrazole-3-carboxamide] was run?
Answer: 0.7 nM

Question: What about the inhibition at 0.67 µM [2, 5] of the same compound?
Answer: 87%

Question: What about the IC50 [2] of the same compound?
Answer: 10 nM

Question: With CCn1nc(C(=O)NC[C@]2(O)CC[C@@H](S(C)(=O)=O)CC2)c(Cl)c1-c1ccc(CC(C)(C)CC(F)(F)F)cc1OC(F)F [Example 90, 4-Chloro-5-(2-(difluoromethoxy)-4-(4,4,4-trifluoro-2,2-dimethylbutyl)phenyl)-1-ethyl-N-(((1s,4s)-1-hydroxy-4-(methylsulfonyl)cyclohexyl)methyl)-1H-pyrazole-3-carboxamide] as the compound, how does the Kd [1, 4] read?
Answer: 0.51 nM

Question: And the inhibition at […] ([2]; HEK-293T, 0.33 μM compound concentration (footnote *****), read-out: RORγt (FL) Reporter Assay A or B, % inhibition)?
Answer: 91%

Question: What about the IC50 [2] of the same compound?
Answer: 9.6 nM

Question: CCn1nc(C(=O)NC[C@H]2CC[C@H](S(C)(=O)=O)CC2)c(Cl)c1-c1ccc(CCC(F)(F)F)cc1C(F)(F)F [Example 171, 4-Chloro-1-ethyl-N-(((1r,4r)-4-(methylsulfonyl)cyclohexyl)methyl)-5-(2-(trifluoromethyl)-4-(3,3,3-trifluoropropyl)phenyl)-1H-pyrazole-3-carboxamide] was tested. Which Kd [1, 4] did it give?
Answer: 14 nM

Question: What about the inhibition at 2 µM [2, 5] of the same compound?
Answer: 24%

Question: And the IC50 [2]?
Answer: 440 nM

Question: Which Kd [1, 4] does the source give for CCn1nc(C(=O)NC[C@H]2CC[C@H](S(C)(=O)=O)CC2)c(Cl)c1-c1ccc(CC(C)C)cc1OC [Example 72, 4-Chloro-1-ethyl-5-(4-isobutyl-2-methoxyphenyl)-N-(((1r,4r)-4-(methylsulfonyl)cyclohexyl)methyl)-1H-pyrazole-3-carboxamide] here?
Answer: 0.29 nM

Question: And the inhibition at 2 µM [2, 5]?
Answer: 67%

Question: What about the IC50 [2] of the same compound?
Answer: 10 nM

Question: How did the Kd ([1]; ThermoFluor® Assay, Kd) turn out when CCn1nc(C(=O)NC[C@@]2(O)CC[C@H](S(C)(=O)=O)C[C@@H]2O)c(Cl)c1-c1ccc(C[C@@H](C)C(F)(F)F)cc1OC(F)F (stereo in doubt) [Example 138, 4-Chloro-5-(2-(difluoromethoxy)-4-((R*)-3,3,3-trifluoro-2-methylpropyl)phenyl)-N-(((1S*,2S*,4S*)-1,2-dihydroxy-4-(methylsulfonyl)cyclohexyl)methyl)-1-ethyl-1H-pyrazole-3-carboxamide] was run?
Answer: 3.7 nM

Question: And the inhibition at 1 µM ([2]; HEK-293T, 1 μM compound concentration (footnote ***), read-out: RORγt (FL) Reporter Assay A or B, % inhibition)?
Answer: 101%

Question: And the IC50 [2]?
Answer: 12 nM

Question: What does the source list for CCn1nc(C(=O)NC[C@H]2CC[C@H](S(C)(=O)=O)CC2)c(Cl)c1-c1ccc(NCC(F)(F)F)cc1OC [Example 25, 4-Chloro-1-ethyl-5-(2-methoxy-4-((2,2,2-trifluoroethyl)amino)phenyl)-N-(((1r,4r)-4-(methylsulfonyl)cyclohexyl)methyl)-1H-pyrazole-3-carboxamide]?
Answer: Kd [1, 4]: 31 nM; inhibition at 6 µM ([2]; HEK-293T, 6 μM compound concentration): 105%; IC50 [2]: 120 nM

Question: What does the source list for CCn1nc(C(=O)NC[C@H]2CC[C@H](S(C)(=O)=O)CC2)c(C#N)c1-c1ccc(CCC(F)(F)F)cc1OC [Example 125, 4-Cyano-1-ethyl-5-(2-methoxy-4-(3,3,3-trifluoropropyl)phenyl)-N-(((1r,4r)-4-(methylsulfonyl)cyclohexyl)methyl)-1H-pyrazole-3-carboxamide]?
Answer: Kd [1, 4]: 44 nM; inhibition at 6 µM ([2]; HEK-293T): 85%; IC50 [2]: 230 nM

Question: CCCn1nc(C(=O)NC[C@]2(O)CC[C@@H](S(C)(=O)=O)CC2)c(Cl)c1-c1ccc(C[C@@H](C)C(F)(F)F)cc1OC (single isomer, unassigned) [Example 42, 4-Chloro-N-(((1s,4S)-1-hydroxy-4-(methylsulfonyl)cyclohexyl)methyl)-5-(2-methoxy-4-((R*)-3,3,3-trifluoro-2-methylpropyl)phenyl)-1-propyl-1H-pyrazole-3-carboxamide] was tested. Which Kd ([1]; ThermoFluor® Assay, Kd) did it give?
Answer: 0.42 nM

Question: And the inhibition at 2 µM [2, 5]?
Answer: 101%

Question: What about the IC50 [2] of the same compound?
Answer: 9 nM

Question: Which Kd [1, 4] does the source give for CCn1nc(C(=O)NC[C@]2(O)CC[C@@H](S(C)(=O)=O)CC2)c(Cl)c1-c1ccc(CC(C)(C)C(F)(F)F)cc1 [Example 167, 4-Chloro-1-ethyl-N-(((1s,4s)-1-hydroxy-4-(methylsulfonyl)cyclohexyl)methyl)-5-(4-(3,3,3-trifluoro-2,2-dimethylpropyl)phenyl)-1H-pyrazole-3-carboxamide] here?
Answer: 8.6 nM

Question: What about the inhibition at 0.67 µM [2, 3] of the same compound?
Answer: 83%

Question: And the IC50 [2]?
Answer: 24 nM

Question: With CCn1nc(C(=O)NC[C@H]2CC[C@H](S(C)(=O)=O)CC2)c(Cl)c1-c1ccc(CCC(C)C)cc1OC [Example 74, 4-Chloro-1-ethyl-5-(4-isopentyl-2-methoxyphenyl)-N-(((1r,4r)-4-(methylsulfonyl)cyclohexyl)methyl)-1H-pyrazole-3-carboxamide] as the compound, how does the Kd [1, 4] read?
Answer: 0.33 nM

Question: And the inhibition at 0.67 µM [2, 3]?
Answer: 50%

Question: And the IC50 [2]?
Answer: 38 nM

Question: Which Kd ([1]; ThermoFluor® Assay, Kd) does the source give for CCn1nc(C(=O)NC[C@@]2(O)CC[C@H](S(C)(=O)=O)C[C@@H]2O)c(C)c1-c1ccc(C[C@H](C)C(F)(F)F)cc1OC(F)F (stereo in doubt) [Example 57, 5-(2-(Difluoromethoxy)-4-((S*)-3,3,3-trifluoro-2-methylpropyl)phenyl)-N-(((1S*,2S*,4S*)-1,2-dihydroxy-4-(methylsulfonyl)cyclohexyl)methyl)-1-ethyl-4-methyl-1H-pyrazole-3-carboxamide] here?
Answer: 5.7 nM

Question: And the inhibition at 3 µM [2, 5]?
Answer: 95%

Question: And the IC50 [2]?
Answer: 35 nM

Question: With CCn1nc(C(=O)NC[C@H]2CC[C@H](S(C)(=O)=O)CC2)c(Cl)c1-c1ccc(OC(C)C(F)(F)F)cc1OC (stereo partly drawn) [Example 212, 4-Chloro-1-ethyl-5-(2-methoxy-4-((1,1,1-trifluoropropan-2-yl)oxy)phenyl)-N-(((1r,4r)-4-(methylsulfonyl)cyclohexyl)methyl)-1H-pyrazole-3-carboxamide] as the compound, how does the Kd [1, 4] read?
Answer: 7.4 nM

Question: What about the inhibition at 2 µM [2, 5] of the same compound?
Answer: 81%

Question: And the IC50 [2]?
Answer: 33 nM

Question: What does the source list for CCn1nc(C(=O)NC[C@]2(O)CC[C@@H](S(C)(=O)=O)C[C@H]2O)c(Cl)c1-c1ccc(C[C@@H](C)C(F)(F)F)cc1OC(F)F (stereo in doubt) [Example 137, 4-Chloro-5-(2-(difluoromethoxy)-4-((R*)-3,3,3-trifluoro-2-methylpropyl)phenyl)-N-(((1R*,2R*,4R*)-1,2-dihydroxy-4-(methylsulfonyl)cyclohexyl)methyl)-1-ethyl-1H-pyrazole-3-carboxamide]?
Answer: Kd ([1]; ThermoFluor® Assay, Kd): 2 nM; inhibition at 3 µM [2, 5]: 102%; IC50 [2]: 4.8 nM

Question: Which results are given for CC(C)(O)Cn1nc(C(=O)NC[C@H]2CC[C@H](S(C)(=O)=O)CC2)c(Cl)c1-c1ccc(CC(C)(C)C(F)(F)F)cc1OC(F)F [Example 145, 4-Chloro-5-(2-(difluoromethoxy)-4-(3,3,3-trifluoro-2,2-dimethylpropyl)phenyl)-1-(2-hydroxy-2-methylpropyl)-N-(((1r,4r)-4-(methylsulfonyl)cyclohexyl)methyl)-1H-pyrazole-3-carboxamide]?
Answer: Kd [1, 4]: 2.5 nM; inhibition at 2 µM [2, 5]: 105%; IC50 [2]: 13 nM

Question: CCn1nc(C(=O)NC[C@H]2CC[C@H](S(C)(=O)=O)CC2)c(Cl)c1-c1ccc(CCC(F)(F)F)cc1F [Example 179, 4-Chloro-1-ethyl-5-(2-fluoro-4-(3,3,3-trifluoropropyl)phenyl)-N-(((1r,4r)-4-(methylsulfonyl)cyclohexyl)methyl)-1H-pyrazole-3-carboxamide] was tested. Which Kd [1, 4] did it give?
Answer: 15 nM

Question: What about the inhibition at 2 µM [2, 5] of the same compound?
Answer: 52%

Question: What about the IC50 [2] of the same compound?
Answer: 69 nM
